Assay results taken from patent publication US7803792B2, “Quaternary ammonium compounds” (Asahi Kasei Pharma Corporation, priority 2002, dated 2010).

Legend:
[1] = biological target: T1, rat IBAT (Rattus norvegicus, UniProt Q62633); experiment: In vitro assay of temporarily expressed rat IBAT transporter using Cos 7 cells (Test Example 8); format: cell-based; conditions: Cos 7 cells temporarily expressing rat IBAT; [3H] taurocholate 8 μM, 37° C., 60 minutes
T1 construct: expressed in transfected cells; host or cells: Cos 7
T1 sequence (Q62633 1-348): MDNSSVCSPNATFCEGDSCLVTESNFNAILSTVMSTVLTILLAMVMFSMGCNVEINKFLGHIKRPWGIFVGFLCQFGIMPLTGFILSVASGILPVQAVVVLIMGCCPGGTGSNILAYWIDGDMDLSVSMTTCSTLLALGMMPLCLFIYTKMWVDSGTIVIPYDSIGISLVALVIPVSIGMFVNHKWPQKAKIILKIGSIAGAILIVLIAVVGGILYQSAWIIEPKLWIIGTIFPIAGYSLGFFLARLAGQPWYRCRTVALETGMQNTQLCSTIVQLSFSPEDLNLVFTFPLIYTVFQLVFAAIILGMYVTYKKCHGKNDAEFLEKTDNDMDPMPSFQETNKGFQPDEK
Procedure: In Vitro Assay of Compounds Which Inhibit Temporarily Expressed Human IBAT Transporter or Rat IBAT Transporter Using Cos 7 Cells
In this test example, the in vitro assay of the compounds which inhibit temporarily expressed human IBAT transporter or rat IBAT transporter using Cos cells was carried out according to the method described in Am. J. Physiol., 274, G157-169.
That is, […] Cos 7 were inoculated on a 24-well cell plate. One day later, 0.3 μg per well of cDNA of a human IBAT or a rat IBAT was transfected by using FuGENE6 (manufactured by ROCHE PHARMACEUTICAL CO., LTD.). For the assay, the cells cultured for one day after the transfection were used and the following procedure was followed. The cells were washed once with an assay buffer, Hank's buffer solution containing 25 mM glucose and with 10 mM HEPES (pH 7.4), and then the assay buffer was replaced by an assay buffer to which the test compound was added. After adding [^3H] taurocholate to a final concentration of 8 μM, the cells were incubated at 37° C. for 60 minutes. [^3H] taurocholate was allowed to be incorporated in Cos 7 cells through human IBAT or rat IBAT. The reaction was stopped by washing twice with a buffer prepared by adding 1 mM taurocholate to the assay buffer and lyzing the cells with 0.2M NaOH. Measurement of radioactivity was carried out by introducing the cell lyzate in 4 ml of liquid scintillation cocktail, stirring the mixture well, and then measuring the radioactivity by a scintillation counter.

[2] = tested on: bile acid loaded rats without partial ligation surgery; experiment: Cholestasis-caused hepatopathy model, bile acid loading without partial ligation, protocol B (Test Example 5); format: in vivo, rat; conditions: 0.1 mg/kg twice a day 3.5 days, distilled water, average ± standard error
Procedure: “Cholestasis-Caused Hepatopathy” Model (Bile Duct Partial Ligation Model)
The “cholestasis-caused hepatopathy” model by partial ligation surgery of bile duct in this test example was handled by referring to the method by Kanno et al. [Kanzo (Liver) 43 Suppl (1): A126, 2002].
That is, the abdomen of a 7 to 10 weeks old SD (IGS) male rat was cut open under anesthesia with pentobarbital and partial ligation surgery of the bile duct was carried out. A blood sample was taken from the femoral vein before the surgery and this was taken as pre-administration value. The test compound and 200 mg/kg of bile acid were forcibly orally administered twice a day for 3.5 days from the next day of the surgery (protocol A). The test compound and 200 mg/kg of bile acid were forcibly orally administered twice a day for 3.5 days without carrying out the partial ligation surgery (protocol B). In both the cases, the test compound was dissolved or suspended in distilled water or an aqueous solution of 1% HCO60 (manufactured by NIPPON CHEMICALS COMPANY, LTD.). […] Moreover, to consider the influence of the surgery, a pseudo operation group (a Sham group) was established as necessary. After 6 hours from the administration of the drug on the last day of the test, a blood sample was taken from the abdominal aorta and AST (GOT), ALT (GPT), and ALP in the blood were measured by using a measurement kit (GOTII-HA TEST WAKO, GPTII-HA TEST WAKO, and ALKALINE PHOSPHER-HA TEST WAKO respectively, all manufactured by WAKO PURE CHEMICAL […], LTD.) with an auto analyzer (NITTECH ANALYZER SUPER Z818).

[3] = tested on: Na+ dependent amino acid transporter; experiment: In vitro assay on Na+ dependent amino acid transporter using Cos 7 cells (Test Example 10); format: cell-based; conditions: [3H] alanine 8 μM, 37° C., 60 minutes, read-out: IC50 (μM) against alanine transporter
Procedure: In Vitro Assay of Effects of Compounds on Na^+ Dependent Amino Acid Transporter and Na^+ Dependent Water-Soluble Vitamin Transporter Using Cos 7 Cells
In this test example, the in vitro assays of the compound on various transporters using Cos 7 cells were carried out according to the method described in Published Translation of Japanese Patent Application No.10-503830.
That is, […] of Cos 7 cells were inoculated on a 24-well cell plate. Two days later, the cells were washed once with an assay buffer, Hank's buffer solution containing 25 mM glucose and with 10 mM HEPES (ph 7.4), and then the buffer was replaced by an assay buffer to which the test compound was added. After adding to this, [^3H] alanine (trade name; NET-348, manufactured by DAIICHI CHEMICAL CO., LTD.), [^3H] leucine (trade name: NET-460, manufactured by DAIICHI CHEMICAL CO., LTD.), [^3H] phenylalanine (trade name: MT903, MORAVEK), [^3H] methionine (trade name: MT862, MORAVEK), [^3H] lysine (trade name: MT909, MORAKEK), or [^3H] choline (trade name: TRK593, […] BIOSCIENCES CO., LTD.) to a final concentration of 8 μM, the mixture was incubated at 37° C. for 60 minutes to allow Cos 7 cells to incorporate them. […] Measurement of the radioactivity was carried out by introducing the lyzate in 4 ml of liquid scintillation cocktail, stirring the mixture well, and then measuring on a liquid scintillation counter. […]

Row | Structure (SMILES) | IC50 [1] | ALT ([2]; control 82 ± 17) | AST ([2]; control 157 ± 35) | ALP ([2]; control 593 ± 77) | IC50 [3]
1 | CCCCC1(CCCC)CS(=O)(=O)c2ccc(N(C)C)cc2C(c2cccc(NC(=S)Nc3ccc(C[N+](C)(C)Cc4ccccc4)cc3)c2)N1.[Br-] (stereo not drawn) [Example 3440] | 10 nM |  |  |  | 
2 | CCCCC1(CCCC)CS(=O)(=O)c2ccc(N(C)C)cc2C(c2cccc(NC(=S)CCCCC[N+]34CCC(CC3)CC4)c2)N1.[Br-] (stereo not drawn) [Example 1, 1-{5-[3-(3,3-Dibutyl-7-dimethylamino-1,1-dioxo-2,3,4,5-tetrahydro-1,4-benzothiazepin-5-yl)phenylthiocarbamoyl]pentyl}-1-azoniabicyclo[2.2.2]octane bromide] | 7 nM | 53 ± 6 IU/L | 100 ± 2 IU/L | 453 ± 50 IU/L | 33 µM
